Patent US20110173718A1, “HERBICIDE TOLERANT PLANTS” (SYNGENTA CROP PROTECTION, INC., priority 2008, published 2011)
Where “and” joins values, the source holds several entries; their conditions need not be identical. Identical values can stand only once. Like-named read-outs stand apart in the source and are kept apart here.

What was measured:
[1] = system: wild-type (WT) Samsun tobacco; test: Glasshouse spray test, wild-type tobacco; format: in vivo; conditions: for blch: % bleaching at the meristem relative to control plants / ht: % height reduction relative to control plants: WT tobacco
Summary of the method: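 Wild-type Samsun tobacco grown from seed was planted in 3 inch pots, grown on under glasshouse conditions (about 24-27° C. day, 18-21° C. night, ~14 h photoperiod, ~65% humidity) and spray-treated alongside transgenic lines. Test chemicals were formulated in water with 0.2% X77 surfactant and applied by track sprayer at 200 l/ha. Height reduction, bleaching and damage were scored against unsprayed control plants of like size.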

weeds = test: Glasshouse weed control, HST inhibitors alone and with A22, post-emergence; format: in vivo; conditions: 336 h, 14 DAT, single replicate, read-out: % control score, Obs; for pest or weed control at 15.625 g/ha: 15.625 g/ha alone; for pest or weed control at 62.5 g/ha: 62.5 g/ha alone; for pest or weed control at 250 g/ha: 250 g/ha alone
Summary of the method: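 Weeds grown in glasshouse trays (24-27 C day, 18-21 C night, ~15 h photoperiod) and track-sprayed in 0.2% X77 at […], pre-emergence or post-emergence at about 7-12 d. HPPD inhibitor A22 applied at 2 g/ha alone or mixed with HST herbicides. Damage scored 0–100% at 14 DAT; synergy calculated by Colby formula.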

[2] = spray with 40 g of compound 1.1, 7 DAT
[3] = spray with 40 g of compound 1.1, 14 DAT

Oc1c(Cl)c(F)nc(F)c1Cl [Compound 1.1, haloxydine]
% damage at 7 DAT ([1]; 25 gai/ha, WT Samsun, individual plants): 75% | % damaged ([1]; 250 g/ha, 8 DAT, w/t plants, 4-5 leaf): 55% and 65% | % damage ([1]; 250 g/ha, 25 DAT, w/t plants): 50-70% | blch: % bleaching at the meristem relative to control plants [1, 2]: 70% and 65% and 60% and 75% and 80% | ht: % height reduction relative to control plants [1, 2]: 60% and 65% and 75% and 70% | blch: % bleaching at the meristem relative to control plants [1, 3]: 40% and 70% and 60% and 75% and 65% | ht: % height reduction relative to control plants [1, 3]: 60% and 70% and 75% and 65% | ht: % height reduction relative to control plants ([1]; spray with 40 g of compound 1.1, 21 DAT): 70% and 80% and 85% and 60% and 55% and 65%

O=c1c(-c2c(F)ccc(Br)c2Cl)c(O)c2nccnc2n1CC(F)F [Compound 2.8]
pest or weed control at 15.625 g/ha (weeds; BRAPL): 20% | pest or weed control at 62.5 g/ha (weeds; BRAPL): 55% | pest or weed control at 250 g/ha (weeds; BRAPL): 85% | pest or weed control at 15.625 g/ha (weeds; PANMI): 40% | pest or weed control at 62.5 g/ha (weeds; PANMI): 50% | pest or weed control at 250 g/ha (weeds; PANMI): 80% | pest or weed control at 15.625 g/ha (weeds; SIDSP): 30% | pest or weed control at 62.5 g/ha (weeds; SIDSP): 45% | pest or weed control at 250 g/ha (weeds; SIDSP): 50% | pest or weed control at 15.625 g/ha (weeds; Digitaria sanguinalis, DIGSA): 5% | pest or weed control at 62.5 g/ha (weeds; Digitaria sanguinalis, DIGSA): 20% | pest or weed control at 250 g/ha (weeds; Digitaria sanguinalis, DIGSA): 60% | pest or weed control at 15.625 g/ha (weeds; Echinochloa crus-galli, ECHCG): 10% | pest or weed control at 62.5 g/ha (weeds; Echinochloa crus-galli, ECHCG): 40% | pest or weed control at 250 g/ha (weeds; Echinochloa crus-galli, ECHCG): 65% | pest or weed control at 15.625 g/ha (weeds; Setaria faberi, SETFA): 5% | pest or weed control at 62.5 g/ha (weeds; Setaria faberi, SETFA): 65% | pest or weed control at 250 g/ha (weeds; Setaria faberi, SETFA): 60%

O=c1c(-c2cc(C(F)(F)F)ccc2Cl)c(O)c2nccnc2n1CC(F)F [Compound 2.9]
pest or weed control at 15.625 g/ha (weeds; BRAPL): 15% | pest or weed control at 62.5 g/ha (weeds; BRAPL): 55% | pest or weed control at 250 g/ha (weeds; BRAPL): 70% | pest or weed control at 15.625 g/ha (weeds; PANMI): 30% | pest or weed control at 62.5 g/ha (weeds; PANMI): 50% | pest or weed control at 250 g/ha (weeds; PANMI): 70% | pest or weed control at 15.625 g/ha (weeds; SIDSP): 10% | pest or weed control at 62.5 g/ha (weeds; SIDSP): 20% | pest or weed control at 250 g/ha (weeds; SIDSP): 20% | pest or weed control at 15.625 g/ha (weeds; Digitaria sanguinalis, DIGSA): 2% | pest or weed control at 62.5 g/ha (weeds; Digitaria sanguinalis, DIGSA): 10% | pest or weed control at 250 g/ha (weeds; Digitaria sanguinalis, DIGSA): 15% | pest or weed control at 15.625 g/ha (weeds; Echinochloa crus-galli, ECHCG): 20% | pest or weed control at 62.5 g/ha (weeds; Echinochloa crus-galli, ECHCG): 40% | pest or weed control at 250 g/ha (weeds; Echinochloa crus-galli, ECHCG): 70% | pest or weed control at 15.625 g/ha (weeds; Setaria faberi, SETFA): 20% | pest or weed control at 62.5 g/ha (weeds; Setaria faberi, SETFA): 50% | pest or weed control at 250 g/ha (weeds; Setaria faberi, SETFA): 65%
